Assay results published in patent publication US8563714B2, “Bridged spiro [2.4] heptane derivatives as ALX receptor and/or FPRL2 agonists” (Actelion Pharmaceuticals Ltd., priority 2009, dated 2013).

How the values were obtained:
human FPRL2 = molecular target: T1, human FPRL2 (Homo sapiens, UniProt P25089); assay: Intracellular calcium measurements (FLIPR), agonistic activity in HEK293-hFPRL2-Gα16 cells; format: cell-based; conditions: Fluo-4 calcium FLIPR, normalized to GLY14-Humanin 100 nM
T1 construct: expressed in transfected cells; host or cells: HEK293 (HEK293-hFPRL2-Gα16)
T1 sequence (P25089 1-353): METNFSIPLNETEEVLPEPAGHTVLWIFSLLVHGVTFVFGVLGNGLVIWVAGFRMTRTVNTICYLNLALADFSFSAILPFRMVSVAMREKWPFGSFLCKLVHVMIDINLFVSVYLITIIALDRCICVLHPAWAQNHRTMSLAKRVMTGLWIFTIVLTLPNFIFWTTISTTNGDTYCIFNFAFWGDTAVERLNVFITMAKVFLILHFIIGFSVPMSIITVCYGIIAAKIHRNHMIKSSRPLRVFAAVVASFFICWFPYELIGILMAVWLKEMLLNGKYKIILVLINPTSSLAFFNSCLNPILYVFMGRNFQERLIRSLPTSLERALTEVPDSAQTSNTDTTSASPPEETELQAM
Summary of the method: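 Peak values after baseline subtraction are expressed relative to 100 nM Gly14-Humanin; compounds diluted in assay buffer from 10 mM DMSO stocks.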

human ALX receptor = molecular target: T2, human ALX receptor (Homo sapiens, UniProt P25090); assay: Intracellular calcium measurements (FLIPR), agonistic activity in HEK293-hALXR-Gα16 cells; format: cell-based; conditions: Fluo-4 calcium FLIPR, normalized to WKYMVm 10 nM
T2 construct: expressed in transfected cells; host or cells: HEK293 (HEK293-hALXR-Gα16)
T2 sequence (P25090 1-351): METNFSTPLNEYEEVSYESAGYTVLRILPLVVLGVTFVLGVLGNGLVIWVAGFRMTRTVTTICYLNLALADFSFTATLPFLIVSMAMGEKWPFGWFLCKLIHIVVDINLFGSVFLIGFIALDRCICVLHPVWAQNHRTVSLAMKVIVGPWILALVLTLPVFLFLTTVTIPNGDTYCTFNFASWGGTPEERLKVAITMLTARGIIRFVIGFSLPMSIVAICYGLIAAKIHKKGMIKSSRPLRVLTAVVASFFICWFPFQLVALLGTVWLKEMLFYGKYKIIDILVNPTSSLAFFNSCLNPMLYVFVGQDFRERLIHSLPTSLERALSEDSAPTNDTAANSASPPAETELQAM
Summary of the method: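 Agonist-induced calcium flux was recorded by FLIPR (488/540 nm) in HEK293-hALXR-Gα16 cells pre-loaded with Fluo-4 AM (1 μM, 60 min, 37°C). Peak signal above baseline, after subtracting buffer addition, was expressed relative to WKYMVm at 10 nM final.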

Structure (SMILES)	EC50 (human FPRL2)	EC50 (human ALX receptor)
NC(=O)CCNC(=O)[C@H]1[C@H](C(=O)Nc2ncc(Br)s2)[C@@H]2CC[C@H]1C21CC1 [Example 239, (5R)—N^5-(5-Bromo-thiazol-2-yl)-(6R)—N^6-(3-amino-3-oxopropyl)-(4S,7R)-[4,7-ethylene-spiro[2.4]heptane]-5,6-dicarboxamide]	> 25000 nM	15 nM
NC(=O)CCNC(=O)[C@H]1[C@H](C(=O)Nc2ncc(Br)s2)[C@@H]2C=C[C@H]1C21CC1 [Example 240, (5R)—N^5-(5-Bromo-thiazol-2-yl)-(6R)—N^6-(3-amino-3-oxopropyl)-(4S,7R)-[4,7-ethenylene-spiro[2.4]heptane]-5,6-dicarboxamide]	> 25000 nM	8.1 nM
NC(=O)CCNC(=O)[C@H]1[C@H](C(=O)NCc2ccc(Br)cc2)[C@@H]2C=C[C@H]1C21CC1 [Example 241, (5R)—N^5-(4-Bromo-phenyl-methyl)-(6R)—N^6-(3-amino-3-oxopropyl)-(4S,7R)-[4,7-ethenylene-spiro[2.4]heptane]-5,6-dicarboxamide]	> 25000 nM	240 nM
NC(=O)CCNC(=O)[C@H]1[C@H](C(=O)Nc2ccc(Br)nc2)[C@@H]2C=C[C@H]1C21CC1 [Example 242, (5R)—N^5-(2-Bromo-pyrid-5-yl)-(6R)—N^6-(3-amino-3-oxopropyl)-(4S,7R)-[4,7-ethenylene-spiro[2.4]heptane]-5,6-dicarboxamide]	6140 nM	5.9 nM
CC(C)CNC(=O)C1C(C(=O)Nc2ncc(Br)s2)C2C=CC1C21CC1 (stereo not drawn) [Example 245, (5R*)—N^5-(5-Bromo-thiazol-2-yl)-(6R*)—N^6-(isobutyl)-(4S*,7R*)-[4,7-ethenylene-spiro[2.4]heptane]-5,6-dicarboxamide]	8240 nM	3.9 nM
Cc1ccc(NC(=O)C2C(C(=O)NCCCCN3CCCC3)C3C=CC2C32CC2)cn1 (stereo not drawn) [Example 253, (5R*)—N^5-(2-Methyl-pyridin-5-yl)-(6R*)—N^6-(4-pyrrolidin-1-yl-butyl)-(4S*,7R*)-[4,7-ethenylene-spiro[2.4]heptane]-5,6-dicarboxamide]	1770 nM	131 nM
O=C(NCCCCN1CCCC1)[C@H]1[C@H](C(=O)Nc2ccc(Br)nc2)[C@@H]2C=C[C@H]1C21CC1 [Example 258, (5R)—N^5-(2-Bromo-pyridin-5-yl)-(6R)—N^6-(4-pyrrolidin-1-yl-butyl)-(4S,7R)-[4,7-ethenylene-spiro[2.4]heptane]-5,6-dicarboxamide]	173 nM	1.1 nM
CCN(CC)CCCCNC(=O)C1C(C(=O)NCc2ccc(Br)cc2)C2C=CC1C21CC1 (stereo not drawn) [Example 272, (5R*)—N^5-(4-Bromophenyl-methyl)-(6R*)—N^6-(4-diethylamino-butyl)-(4S*,7R*)-[4,7-ethenylene-spiro[2.4]heptane]-5,6-dicarboxamide]	299 nM	121 nM
NC(=O)CCNC(=O)[C@H]1[C@H](C(=O)Nc2ccc(Br)nc2)[C@@H]2CC[C@H]1C21CC1 [Example 278, (5R)—N^5-(2-Bromopyrid-5-yl)-(6R)—N^6-(3-amino-3-oxopropyl)-(4S,7R)-[4,7-ethylene-spiro[2.4]heptane]-5,6-dicarboxamide]	> 25000 nM	7.9 nM
O=C(NCCCCN1CCCC1)[C@H]1[C@H](C(=O)Nc2ccc(Br)nc2)[C@@H]2CC[C@H]1C21CC1 [Example 279, (5R)—N^5-(2-Bromopyrid-5-yl)-(6R)—N^6-(4-pyrrolidino-butyl)-(4S,7R)-[4,7-ethylene-spiro[2.4]heptane]-5,6-dicarboxamide]	62 nM	1.3 nM
NC(=O)CCNC(=O)[C@H]1[C@H](C(=O)Nc2ccc(Br)cn2)[C@@H]2C=C[C@H]1C21CC1 [Example 280, (5R)—N^5-(5-Bromopyrid-2-yl)-(6R)—N^6-(3-amino-3-oxopropyl)-(4S,7R)-[4,7-ethenylene-spiro[2.4]heptane]-5,6-dicarboxamide]	> 25000 nM	258 nM
